# Results from the OPERA property sets (Mansouri et al. 2018).
# Where a SMILES comes first, the peptide text is derived from it.
# Conditions: not given
row,Structure (SMILES),solubility
1,CCOC(=O)C(CC(=O)O)=C(c1ccccc1)c1ccccc1,6.44 mM
2,Oc1ncncc1Br,357 mM
3,CC(C)CC(c1ccc(O)cc1)c1ccc(O)cc1,0.429 mM
4,C1COC2(C1)CCCO2,780 mM
5,O=C(c1ccco1)N(O)c1ccccc1,0.64 mM
6,COC(/C=C/C(OC)OC)OC,1140 mM
7,O=S(=O)(O)c1ncc[nH]1,844 mM
8,O=C(O)C1CCNCC1C(=O)O (stereo not given),289 mM
9,O=C(Cc1ccccc1)N[C@@H](CSSC[C@H](NC(=O)Cc1ccccc1)C(=O)O)C(=O)O,14.7 mM
10,Nc1ccc(C#Cc2ccc(N)cc2)cc1,3.69 mM
11,NC(=O)C=Cc1ccccc1[N+](=O)[O-],52 mM
12,Cc1ccc(NO)cc1,162 mM
13,Cc1cc(N)n(-c2ccccc2)n1,115 mM
14,Oc1ccccc1Oc1ccccc1,0.591 mM
15,CC(C)C=CCC(=O)O,71 mM
16,CCC(Br)(Br)C(=O)O,134 mM
17,COC1CCCC(C)O1 (stereo not given),256 mM
18,O=S(=O)(O)c1cc(O)c2cc(Nc3ccccc3)ccc2c1,10.6 mM
19,C=CCOC(CO)CO,3030 mM
20,CC(NC(=O)C=CC(=O)O)C(=O)O (stereo not given),107 mM
21,C[C@@H](O)CCCC=O,344 mM
22,O=C(O)C(Cl)(Cl)CCCl,261 mM
23,CCOc1ccc(NC(=O)CO)cc1,7.84 mM
24,CCCCOC(=O)CCC(=O)OCCCC,0.999 mM
25,CNCCC(=O)O,882 mM
26,O=C(c1ccc(Cl)cc1Cl)N(O)c1ccccc1,0.213 mM
27,CC(C)[C@H](NC(=O)CN)C(=O)O (H-Gly-Val-OH),2870 mM
28,O=C1OCc2ccc3ccccc3c21,0.494 mM
29,Nc1ccc2snnc2c1,49.6 mM
30,Cn1cc(I)ccc1=O,979 mM

# Same assay, conditions: 20 °C
row,Structure (SMILES),solubility
1,C=CCC(C(=O)O)C(C)C(=O)O (stereo not given),87.1 mM
2,Nc1ccncc1,885 mM
3,CCCCCCC(O)C(O)C(=O)O (stereo not given),28.4 mM
4,Cn1c(=O)c2c(n(C)c1=O)n(C)c(=O)n2C,112 mM
5,O=S(=O)(CCCl)CCCl,31.4 mM
6,OCc1ccccc1Br,6.95 mM
7,Nc1c(S(=O)(=O)O)cc(S(=O)(=O)O)c2ccc(S(=O)(=O)O)cc12,480 mM
8,O=C1CCCCCN1C(=O)c1ccccc1,6.81 mM
9,COC[C@@H](N)C(=O)O (racemic),4490 mM
10,CCCCCCCS,0.07 mM
11,CC(=O)/C(=N/O)c1ccccc1,4.29 mM
12,O=C(O)c1cc(Cl)ccc1O,57.9 mM
13,S=c1[nH]sc(=S)[nH]1,17.3 mM
14,CCC(C)(O)C(O)c1ccccc1 (stereo not given),18.9 mM
15,CC(=O)CC1=NCCS1,69.8 mM
16,CN1C(=O)COc2ccccc21,7.17 mM
17,O=C(O)C(Cl)=C(Br)Br,205 mM
18,O=c1cccc2[nH]ccnc1-2,45 mM
19,CC[C@@H]1C(=O)O[C@H]1C,216 mM
20,O=C(O)CCCCCCCCCCO,1.98 mM

row,Structure (SMILES),solubility
1,Clc1ncc2nccnc2n1,200 mM
2,NC(=O)NC(=O)C=CC(=O)O,12 mM
3,CC(O)(CCl)CCl,657 mM
4,CCOC(=O)C(C)=CC(=O)[O-],94.2 mM
5,OCc1ccc(O)cc1,54 mM
6,Oc1ccc2c(c1)Sc1ccccc1N2,2.66 mM
7,Cc1ncnc2c(O)cccc12,2.5 mM
8,CCC(C#N)(CC)C(=O)NC(N)=O,27.3 mM
9,Ic1ccc2c(c1)Sc1ccccc1N2,0.000118 mM
10,CC=C(CCCC)C(N)=O,42.5 mM
11,C=CCOc1ccccc1C(N)=O,5.93 mM
12,OCC1=C[C@@H](O)[C@@H]2C=CO[C@@H](OC3OC(CO)C(O)C(O)C3O)[C@H]12 (stereo not given in full),1030 mM
13,O=C(Nc1ccccc1)C(Cl)Cl,0.441 mM
14,O=C1COc2ccccc2N1,2.68 mM
15,OCc1c(Cl)c(Cl)c(Cl)c(Cl)c1Cl,0.00713 mM
16,OCC(O)C1OC(Oc2ccccc2)C(O)C(O)C1O (stereo not given),27.9 mM
17,Cc1cc(C)cc(OCC(=O)O)c1,4.44 mM
18,CCCCC(CCC(=O)O)CC(=O)O (stereo not given),40 mM
19,CCCCCS,1.5 mM
20,CN(CCCCC(=O)O)S(=O)(=O)c1ccccc1,27.6 mM

row,Structure (SMILES),solubility
1,O=C(O)c1c(Cl)c(Cl)c(Cl)c(Cl)c1C(=O)O,11.8 mM
2,CC(C)C(CC(=O)O)C(=O)O (stereo not given),391 mM
3,COc1c(C(=O)O)cccc1C(=O)O,5.1 mM
4,Nc1nc2c(O)cccc2s1,12 mM
5,COC(=O)c1cc([N+](=O)[O-])ccc1C(=O)O,19 mM
6,Cc1nc2cncnc2n(C)c1=O,32.4 mM
7,O=[N+]([O-])c1ccc(CO)cc1,13.1 mM
8,CC1CCC2(CCC(C)O2)O1 (stereo not given),356 mM
9,Cc1nc2c(=O)n(C)c(=O)n(C)c2nc1C,45.4 mM
10,c1ncc2n[nH]nc2n1,586 mM
11,CCC(=O)OCc1ccc(Cl)cc1Cl,0.858 mM
12,CCOC(C)CCO (stereo not given),423 mM
13,Nc1ccc(Cl)cc1[N+](=O)[O-],2.9 mM
14,O=C(O)COc1cccc(Cl)c1,6.38 mM
15,Oc1cncc2cccnc12,22 mM
16,O=C(O)CNC(=O)CNS(=O)(=O)c1ccc2ccccc2c1,2.02 mM
17,NC(N)=Nc1nc2ccccc2s1,3.62 mM
18,CC1(C)C2CCC1(C)C(N)(C(=O)O)C2 (stereo not given),25.3 mM

# Same assay, conditions: 21 °C
row,Structure (SMILES),solubility
1,NC(=S)NCNC(N)=S,21.3 mM
2,O=C(O)c1cc(Br)ccc1Cl,11.2 mM
3,NC(N)=N/C(N)=N/c1ccc2ccccc2c1,2.82 mM

# Same assay, conditions: 22 °C
row,Structure (SMILES),solubility
1,CCOP(=O)(Cc1ccc(-c2nc3ccccc3s2)cc1)OCC,0.0996 mM
2,O=C1CCCCCCCCCN1,13 mM
3,NNc1cccc(S(=O)(=O)O)c1,149 mM
4,C[C@](N)(C(=O)O)c1ccccc1,291 mM

# Same assay, conditions: 23 °C
row,Structure (SMILES),solubility
1,CC(C)C(=O)Oc1ccc([N+](=O)[O-])cc1,0.11 mM
2,NC(=S)NNC(N)=S,16 mM

# Same assay, conditions: 24 °C
row,Structure (SMILES),solubility
1,c1ccc(CNCCNCc2ccccc2)cc1,16.3 mM

# Same assay, conditions: 25 °C
row,Structure (SMILES),solubility
1,COS(=O)(=O)c1ccccc1,18.1 mM
2,O=I(=O)c1ccccc1,14.4 mM
3,Cc1cc(C)nc(N)n1,325 mM
4,CCCCCCCCNC(=O)c1cccnc1,0.982 mM
5,CC(C)CCCCCO,4.97 mM
6,CC(C)C[C@H](N)C(=O)N[C@H](CCC(N)=O)C(=O)O,27 mM
7,CCCCCN(N=Cc1ccc([N+](=O)[O-])o1)C(N)=O,1.27 mM
8,CC1OC(=O)c2cc(N)ccc21 (stereo not given),16.3 mM
9,CCCCCCC(C(=O)O)C(=O)O,22 mM
10,CSCCC(NC(C)=O)C(=O)O (racemic),1070 mM
11,O=c1ccc(Br)cc(Br)c1O,0.314 mM
12,O=C(NC(=O)c1cccnc1)Nc1ccccc1,0.414 mM
13,CCOc1ccc(NC(C)=O)c(C)c1,14.5 mM
14,CCc1c[nH]c(=O)[nH]c1=O,11.4 mM
15,CC(C)C1CCC(=NO)C(=NO)C1 (stereo not given),4.07 mM
16,CCCCOP(=O)(CCCC)CCCC,19.2 mM
17,CCOCCC(=O)OC,847 mM
18,O=C(O)CCC(=O)c1cccc2ccccc12,0.329 mM
19,CC(=O)OCC(C)OC(C)=O (stereo not given),624 mM
20,ON=C1CCCCCCCCC1=NO,2.62 mM
21,CCCCCCNC(=O)c1cccnc1,3.01 mM
22,CN(C)c1cccc(S(=O)(=O)O)c1,1990 mM
23,Cc1cc(Cl)c(O)c(Cl)c1,38 mM
24,CC(NCCC#N)C(=O)O (stereo not given),985 mM
25,CO[C@H](C)[C@H](N)C(=O)O (racemic),3100 mM
26,CCCCC(=O)Oc1ccc([N+](=O)[O-])cc1,0.0403 mM

row,Structure (SMILES),solubility
1,Cc1nc(Br)[nH]c1[N+](=O)[O-],16.2 mM
2,CC(C)[C@@H](O)C#N,2020 mM
3,COc1c(O)ccc(C=O)c1C,42.1 mM
4,CCC(C)[C@@H](NC(C)=O)C(=O)O (mixture of isomers),177 mM
5,CC1CCCC(=NO)C1=NO (stereo not given),25.6 mM
6,CC(C)C[C@H](N)C(=O)N[C@@H](CCC(=O)O)C(=O)O (H-Leu-Glu-OH),127 mM
7,O=C(O)c1cccc2cccnc12,18 mM
8,CCCCCOC(=O)c1cccnc1,4.19 mM
9,N#CSc1ccc(N)cc1,2.5 mM
10,CCOc1ccc(N(C(C)=O)C(C)=O)cc1,11.3 mM
11,CCCCC(C)C(C)O (stereo not given),8.75 mM
12,C[Si](C)(C)CCCN,11.2 mM
13,C=CCOC(=O)C(C)OC(=O)C(C)O (stereo not given),208 mM
14,CCCCCCCCCCCNC(=O)c1cccnc1,0.941 mM
15,O=C(CCl)NC(=O)CCl,5.88 mM
16,Oc1ccc(C2CCCCC2)cc1,0.34 mM
17,C=CC1=C(C)C(=Cc2[nH]c(Cc3[nH]c(C=C4NC(=O)C(C)=C4C=C)c(C)c3CCC(=O)O)c(CCC(=O)O)c2C)NC1=O,0.0154 mM
18,Cc1cc(Cl)cc(C)c1O,21.1 mM
19,CCCCP(=O)(CCCC)OCC,63 mM
20,CCC(CC)(CC(=O)O)C(=O)O,160 mM
21,CCN1CC(=O)N=C1N,684 mM
22,O=C(O)c1ccc(O)cc1O,37.5 mM
23,CC(C(=O)O)N(CCC#N)CCC#N (stereo not given),666 mM
24,CC1(C)OC(=O)c2ccccc21,13.5 mM
25,O=Cc1ccc(O)c(C(=O)O)c1,2.32 mM
26,CCOC(=O)N1CCN(C(=O)OCC)CC1,187 mM

# Same assay, conditions: 26 °C
row,Structure (SMILES),solubility
1,CSC1=CC(=O)c2ccccc2C1=O,0.0343 mM
2,N#CCCN(CCC#N)[C@@H](CCC(=O)O)C(=O)O,592 mM
3,CC(C(=O)O)C(C)(C)CCC(=O)O (stereo not given),29.8 mM
4,N#CCCNC(CCC(=O)O)C(=O)O (stereo not given),49.9 mM
5,CSCCC(C(=O)O)N(CCC#N)CCC#N (racemic),47 mM

# Same assay, conditions: 27 °C
row,Structure (SMILES),solubility
1,c1ccc2c(c1)-c1cccc3cc4c(ccc5ccccc54)c-2c13,3.31e-06 mM
2,CCC(C)(C)NC(N)=O,96.8 mM

# Same assay, conditions: 28 °C
row,Structure (SMILES),solubility
1,NC(=O)NCO,451 mM

# Same assay, conditions: 29 °C
row,Structure (SMILES),solubility
1,Cc1cnc(NS(=O)(=O)c2ccc(N)cc2)nc1C,0.719 mM

# Same assay, conditions: 30 °C
row,Structure (SMILES),solubility
1,CCOC(=O)c1ccc(O)c(Cl)c1,0.598 mM
2,CS(=O)(=O)NS(C)(=O)=O,1100 mM
3,CCCn1c(=O)c2c(ncn2C)n(C)c1=O,61.9 mM
4,CCCCCCCCS(=O)(=O)NS(=O)(=O)CCCCCCCC,0.122 mM
5,COC(C)C(C)Cl (stereo not given),10 mM
6,O=C(O)c1ccccc1C(=O)c1ccc(Br)cc1,0.983 mM
